# Measurements as given in US12653805B2, “Targeting LASP1, eIF4A1, eIF4B and CXC4 with modulators and combinations thereof for cancer therapy” (The University of Toledo, priority 2019, dated 2026).
# What was measured:
# [1] = molecular target: T1, eIF4A1 (Homo sapiens, UniProt P60842); assay type: cell-based
# T1 construct: A GQ-5′-UTR dual reporter was created in breast cancer cell lines; endogenous in cells
# Text: A GQ-5′-UTR dual reporter was created in breast cancer cell lines which would report either a reduction in td-Tomato fluorescence or luciferase activity if eIF4A1 is inhibited by any of the compounds in the Prestwick library (FIGS. 26A-26B).
# [2] = tested on: triple-negative MDA-MB-231 cells; experiment: Immunoblotting after digoxin in MDA-MB-231 cells; assay type: cell-based, human
# [3] = tested on: triple-negative SUM-159-PT cells; experiment: Immunoblotting after digoxin in SUM-159-PT cells; assay type: cell-based, human; conditions: 30 nM digoxin (low dose)
# [4] = tested on: MCF7 breast cancer cells; conditions: RNA-Seq data, p 4.3E−10, adjusted p 8.5E−7; cited from earlier work
# [5] = tested on: BCSCs derived from SUM-159PT cells; experiment: DRAQ7 cell death assay in BCSCs from SUM-159PT; assay type: cell-based, human; conditions: 5 nM RocA, day 7
# Protocol: (§1) The induction of cell death by the small molecule inhibitor rocaglamide A (RocA) (Sigma/Aldrich, St. Louis, Mo., Cat. #—SML0656) was followed by employing Deep Red Anthraquinone 7 (DRAQ7) dye (Abcam, Cat. #—ab109202). DRAQ7 is a cell impermeable, far-red fluorescent DNA dye that stains the nuclei of dead and plasma membrane-compromised cells. […] For the cell death analysis, ALDH+ BCSCs were treated with the indicated drug dosage for 7 days. On day 7, DRAQ7 was added to the cells (1:2,000 dilution) and incubated overnight. Dead BCSCs were tracked by DRAQ7 fluorescence by employing the EVOS cell imaging system (ThermoFisher Scientific, Rockford, Ill.).
# [6] = tested on: BCSCs derived from SUM-159PT cells; experiment: CellTiter-Glo viability assay in BCSCs from SUM-159PT; assay type: cell-based, human; conditions: 5 nM RocA
# Text: (§2) The cell viability was alternatively determined on day 7 following treatment with RocA by employing the CellTiter-Glo® luminescent cell viability kit (Promega, Cat. #—G7570) as per the manufacturer's instructions. This quantitative assay is a homogeneous method of determining the number of viable cells in culture based on the amount of adenosine triphosphate (ATP) present inside the cells.
# [7] = tested on: SUM-159PT cells; experiment: Viability of parental and paclitaxel-resistant SUM-159PT cells after RocA; assay type: cell-based, human; conditions: therapy naïve and paclitaxel-resistant (Pac 200) cells, 48 h, adherent and non-adherent conditions
# Protocol: (§3) Briefly, to assess the cell viability, 3×10^3 cells/well (SUM-159PT, SUM Pac 200 nM, MDA-Bone-Un eIF4A CC and KO) were seeded and the cells were allowed to attach and spread overnight under adherent or non-adherent low attachment conditions.
# [8] = tested on: MDA-Bone-Un eIF4A CC and KO cells; experiment: Viability of MDA-Bone-Un eIF4A CRISPR control and knockout cells after RocA; assay type: cell-based, human; conditions: 48 h
# Protocol: as §3
# [9] = tested on: 231S LASP1 NS and KD cells; experiment: Pharmacological inhibition of eIF4A in 231S LASP1 NS and KD cells; assay type: cell-based, human
# Protocol: 231S LASP1 NS/KD cells were plated into 96-well dishes (3,000 cells/well) and incubated with various amounts of rocaglamide A (RocA) (Sigma/Aldrich, St. Louis, Mo., Cat. No. SML0656) in low serum media (LSM-DMEM/0.5% FBS). Images were acquired via an IncuCyte R S3 Live-Cell Analysis System (Essen BioScience, Ann Arbor, Mich.). Two images per well were acquired every 2 h. Data was processed on the IncuCyte S3 software (Essen BioScience, Ann Arbor, Mich.). Only cells with an area >150 μm^2 were analyzed to avoid cellular debris. Data is reflective of the percent confluence of each image at 36 h RocA incubation. Percent inhibition was calculated in reference to the DMSO control. The readings from 231S LASP1 NS cells were set to 1. In the cell viability experiments, 231S LASP1 NS/KD cells were seeded at 6,000 cells/well and allowed to attach and spread overnight. The following day, complete media was replaced with LSM and RocA. Cell viability was then determined 36 h later using a cell counting kit-8 (Sigma/Aldrich, St. Louis, Mo., Cat. No 96992) according to the manufacturer's instructions. Data is reflective of the absorbance at 450 nm (A450). The DMSO controls were set to 100%.
# [10] = tested on: BCSCs derived from MDA-Bone-Un cells; experiment: DRAQ7 cell death assay in BCSCs from MDA-Bone-Un; assay type: cell-based, human; conditions: 30 nM RocA, 7 days
# Protocol: as §1
# [11] = tested on: BCSCs derived from MDA-Bone-Un cells; experiment: Mammosphere formation efficiency (MFE) assay, BCSCs from MDA-Bone-Un; assay type: cell-based, human; conditions: 10 nM RocA, p<0.0001
# Protocol: (§4) The evaluation of MFE was performed as described previously. Briefly, 1×10^3 ALDH+ BCSCs of MDA-Bone-Un or SUM-159PT origins were seeded onto 96-well ultra-low attachment plates. They were maintained in DMEM/F12 media supplemented with […] bFGF, […] hEGF, 2% B27 mixture, and 1% penicillin/streptomycin for 7 days. The mammosphere images were obtained longitudinally by employing IncuCyte® S3 Live-Cell Analysis System (Essen BioScience, Ann Arbor, Mich.). On day 7, MFE was calculated by employing the formula: (number of mammospheres formed/total number of cells seeded)×100. A diameter of 100 μm was used as a cut-off in the determination of the mammosphere forming ability. For the assessment of secondary MFE, the BCSCs from primary MFE were collected, centrifuged, and re-seeded onto 96-well plates coated with poly 2-hydroxyethyl methacrylate (poly-HEMA). The cells were monitored, and the mammospheres were counted using IncuCyte.
# [12] = tested on: BCSCs derived from MDA-Bone-Un cells; experiment: Immunoblotting of RocA-treated BCSCs from MDA-Bone-Un; assay type: cell-based, human
# [13] = tested on: BCSCs derived from MDA-Bone-Un cells; experiment: CellTiter-Glo viability assay in BCSCs from MDA-Bone-Un; assay type: cell-based, human; conditions: 7 days
# Text: as §2
# [14] = tested on: BCSCs derived from SUM-159PT cells; experiment: Mammosphere formation efficiency (MFE) assay, BCSCs from SUM-159PT; assay type: cell-based, human
# Protocol: as §4
# [15] = 45 nM RocA, 72 h, pooled replicates
# T1 sequence (P60842 whole entry): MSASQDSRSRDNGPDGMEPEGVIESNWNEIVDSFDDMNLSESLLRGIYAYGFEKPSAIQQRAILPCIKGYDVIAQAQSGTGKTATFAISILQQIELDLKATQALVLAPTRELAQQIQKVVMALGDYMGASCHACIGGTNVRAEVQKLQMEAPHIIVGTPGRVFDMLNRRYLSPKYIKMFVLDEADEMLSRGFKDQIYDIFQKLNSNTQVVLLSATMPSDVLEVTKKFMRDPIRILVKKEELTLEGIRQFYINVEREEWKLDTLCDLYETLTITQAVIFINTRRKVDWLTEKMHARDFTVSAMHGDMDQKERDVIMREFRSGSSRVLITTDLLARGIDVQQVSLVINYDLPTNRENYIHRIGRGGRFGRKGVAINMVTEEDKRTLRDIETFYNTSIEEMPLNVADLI
smiles,measurement,setting,value
C[C@H]1O[C@@H](O[C@H]2[C@@H](O)C[C@H](O[C@H]3[C@@H](O)C[C@H](O[C@H]4CC[C@@]5(C)[C@H](CC[C@@H]6[C@@H]5C[C@@H](O)[C@]5(C)[C@@H](C7=CC(=O)OC7)CC[C@]65O)C4)O[C@@H]3C)O[C@@H]2C)C[C@H](O)[C@@H]1O [digoxin],activity of eIF4A1,[1]; 3 different TNBC cell lines,potently inhibited
same,Z-score,[1]; Prestwick chemical library screen,below −5
same,downstream effectors of eIF4A1 activity BIRC5 (survivin) and Rho Kinase 1 (ROCK1),[2],dose-dependent inhibition
same,downregulation (reduction) of c-MYC,[3],60%
same,downregulation of the levels of eIF4A1,[3],50%
same,C-Myc mRNA level,[4],decrease
COc1ccc([C@@]23Oc4cc(OC)cc(OC)c4[C@]2(O)[C@H](O)[C@H](C(=O)N(C)C)[C@H]3c2ccccc2)cc1 [rocaglamide A],BCSCs intensely stained with DRAQ7,[5],More than 50%
same,cells dead,[6],More than 50%
same,targeting of cell viability,[7],effective
same,viability following RocA challenge,[8]; MDA-Bone-Un eIF4A CC cells,steep decrease in viability
same,sensitivity of viability to RocA,"[8]; MDA-Bone-Un eIF4A KO cells, up to 60 nM RocA",relatively insensitive
same,cellular viability,"[9]; 231S LASP1 KD cells, RocA 36 h, cell counting kit-8",significantly decreased
same,BIRC5 levels,"[9]; 231S LASP1 NS cells, 24 h RocA, 30 to 100 nM",dose-dependent decrease
same,proliferation,[9]; MDA-MB-231 cells with stable knockdown of LASP1 combined with rocaglamide A,effectively inhibited
same,DRAQ7 staining (dead BCSCs),[10],intense DRAQ7 staining
same,reduction of the primary mammospheres,[11],~50%
same,secondary MFE,[11],severely impacted
same,reduction in NANOG level,"[12]; 15 nM RocA, 48 h",2 fold
same,reduction of ABC transporter ABCB1,"[12]; 45 nM RocA, 48 and 72 h, pooled replicates",10 fold
same,decrease of SOX2 level,"[12]; 45 nM RocA, 24 h, pooled replicates",10 fold
same,reduction in NANOG level,"[12]; 45 nM RocA, 48 h",10 fold
same,reduction of OCT4,"[12]; 45 nM RocA, 48 h (dose experiment)",3.3 fold
same,decrease of OCT4,"[12]; 45 nM RocA, 48 h, 3 biological replicates pooled",2.5 fold
same,SOX2 level increased back,"[12]; 45 nM RocA, 48 h, pooled replicates",2 fold
same,SOX2,[12]; [15],degradation of SOX2 was observed
same,decrease of OCT4,[12]; [15],10 fold
same,"expression of BIRC5, Cyclin D1, Cyclin D3, and ROCK1","[12]; 15, 30, and 45 nM RocA, 48 h",dramatic reduction
same,total protein level of eIF4A,"[12]; 15, 30, and 45 nM RocA, 48 h",did not affect
same,induction of cleaved caspase-3 (increase),"[12]; RocA 15-45 nM, 48 h",up to 17.1 fold
same,levels of the BCSC markers ALDH1A1 and CD44,"[12]; RocA, 48 h",not affected
same,SOX2 level,"[12]; all concentrations of RocA, 48 h",remained elevated above the basal level
same,viability based on ATP level,[13]; 30 nM RocA,nearly all BCSCs were wiped out
same,IC50,"[13]; cellular ATP, read-out: half maximal inhibitory concentration (IC50)",15 nM
same,reduction in formation of the primary mammospheres,[14]; 10 nM RocA,50%
same,decrease in secondary MFE,"[14]; RocA, compared with primary MFE",more drastic
